Holding throughout (set-up): GG stays after cleavage) (N); made in house; host or cells: E. coli BL21(DE3)
Assay [1] concerns the target T1, PaPepA (Pseudomonas aeruginosa, UniProt Q02RY8). The assay is described as follows: Isothermal titration calorimetry of metal binding. On the procedure: Purified PaPepA (100 μM) was buffer exchanged into ITC buffer (50 mM Tris, 140 mM NaCl, pH 7.4) using a Millipore Amicon Ultra-4 centrifugal unit (10 kDa MWCO). The protein was syringe-filtered through a […] and diluted to 50 μM. 3 mL solutions of filtered metal were also prepared. A 400 μM solution of MnCl2 and a 1 mM solution of MgCl2 were prepared by dilution of 1 M metal chloride stocks (Sigma) into ITC buffer.
Buffer, protein, and metal solutions were degassed. Following extensive washes with ITC buffer, the protein was loaded into the cell (volume 1.43 mL) of a VP-ITC (MicroCal) and MnCl2 or MgCl2 solution was loaded into the syringe (total volume 300 μL). Experiments were carried out using the following settings: temperature = 25 °C, duration = 4 s, spacing = 210 s, filter period = 2 s, for 35 injections (one injection of 2 μL followed by 34 injections of 8 μL). Data were analyzed using Origin(Pro), Version 2021 (OriginLab Corporation, Northampton, Massachusetts, USA), and MicroCal PEAQ-ITC analysis software (Malvern).

In assay [2] the target is T1, PaPepA. Nature of the assay: Pre-steady-state stopped-flow kinetics with global fit. It is filed as biochemical. The procedure: An Applied Photophysics SX20 stopped-flow spectrofluorimeter was used to perform kinetic measurements under pre-steady-state conditions. The instrument was equipped with a xenon lamp, a 5 μL mixing cell, and a circulating water bath to maintain constant temperature. All reactions were carried out in 100 mM HEPES (pH 8.0) and 50 mM KCl at 25 °C. Enzyme and metal ions were kept in one syringe, while the other substrate (Leu-pNA or Leu-AMC) was kept in the second syringe. The reaction was triggered by rapid mixing of 55 μL from each syringe. Three traces with 10,000 points per trace were collected per experiment.
For absorbance measurements, product formation was monitored by reading the pNA absorbance at 405 nm (5 mm path length). Multiple turnover rates were measured in the presence of saturating concentrations of both metal and Leu-pNA. PaPepA was present at 1 or 10 μM, MnCl2 was present at 3 mM, and Leu-pNA was present at 250 μM. For fluorescence measurements, a path length of 1 mm was used. Reactions were followed by monitoring the appearance of a 7-amino-4-methylcoumarin (AMC) fluorophore following PaPepA-catalyzed breakdown of Leu-AMC. An excitation wavelength of 341 nm was used with a 400 nm cutoff filter for the emission. Slits were 1 nm for excitation and 2 nm for emission.
Experiments under single turnover conditions monitored fluorescence change with a detector voltage of 300 V, 0.1 μM Leu-AMC, 1.5 mM MnCl2, and varying PaPepA (0.5, 1, 2, 4, 8, 16, or 32 μM). Experiments under multiple turnover conditions monitored fluorescence change with a detector voltage of 250 V, 50 μM Leu-AMC, 1.2 μM PaPepA and varying concentrations of MnCl2 (0.2, 0.4, 0.6, 1.2, 2.4, 6, 9, 12, 18, 24, 60, 120, 1200, or 3600 μM).
Calibration curves of known concentrations of AMC were performed at detector voltages of 250 and 300 V. STO and MTO curves were divided by the slope of these calibration curves to convert the change in fluorescence observed to the concentration of AMC produced.
Pre-steady-state data were imported into KinTek Global Explorer and fit to linear or single-exponential equations using the aFit function to obtain standard deviation estimates. A kinetic model with five steps was considered, and rate constants and outputs were fitted according to this model. Initial estimates for rate constants were based on kcat and KM values. The FitSpace Editor was employed to determine confidence intervals for each of the rate constants. More details including model fitted and parameters used are available in the Supporting Information.
Supporting information note 4: Kintek Global Explorer fitting of stopped flow data Both MTO and STO pre-steady-state data were fit according to the mode described in Figure 4A with scaling factors for each fluorescent species (EP and P) to account for differences in AMC fluorescence whilst in complex with PaPepA versus free in solution. Scaling factors were different across STO and MTO experiments as both were carried out using different detector voltages.
The model that best fitted acquired data was as below, where F is metal free enzyme, E1 is PaPepA with one Mn2+ ion, E is PepA with two Mn2+ ions, S is Leu- […]
For fitting, k1 and k-1 ratios were constrained (linked) based KD for Mn2+ binding as measured by ITC (12nM). Initially, k2 and k-2 were allowed to vary without constraints, and values best fitted as well as Fitspace lower and upper boundaries are reported in Table 2. The value for k1 was best fitted as diffusion limited, and therefore was fixed in further fitting cycles. The best fitted value for k-2 was high and unconstrained, and therefore also fixed at 1000 s-1 for further fitting cycles. k3, k-3, k4, and k5 were not constrained. Multiple iterations of fitting were performed, and best fit values recorded. k1, k2, k3, k-3, k4, and k5 were evaluated using FitSpace Explorer to generate confidence intervals for each of these rate constants. […]

The target in assay [3] is T1, PaPepA. It is filed as biochemical.
[4] abbreviates: multiple turnover, 50 μM Leu-AMC, […] PaPepA.

The values that follow come from publication PMC10666288, “Unveiling the Catalytic Mechanism of a Processive Metalloaminopeptidase” (Biochemistry, 2023).

T1 sequence (Q02RY8 whole entry): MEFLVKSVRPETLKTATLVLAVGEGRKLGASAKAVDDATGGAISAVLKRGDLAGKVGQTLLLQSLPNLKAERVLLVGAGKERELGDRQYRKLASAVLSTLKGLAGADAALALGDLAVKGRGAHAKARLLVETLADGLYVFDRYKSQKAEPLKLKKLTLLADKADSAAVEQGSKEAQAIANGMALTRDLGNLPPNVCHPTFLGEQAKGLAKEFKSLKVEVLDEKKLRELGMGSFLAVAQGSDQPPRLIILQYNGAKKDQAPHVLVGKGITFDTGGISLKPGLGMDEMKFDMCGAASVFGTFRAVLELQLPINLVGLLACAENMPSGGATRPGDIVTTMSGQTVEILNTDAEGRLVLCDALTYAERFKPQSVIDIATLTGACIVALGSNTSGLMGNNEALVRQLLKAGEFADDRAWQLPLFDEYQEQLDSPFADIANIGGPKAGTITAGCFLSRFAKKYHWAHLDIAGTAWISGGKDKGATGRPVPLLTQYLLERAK

`[Mn+2]` [Mn^2+]: the “greater affinity for Mn^2+ than Mg^2+” value in assay [1] (ITC titration curves) was “approximately 150 times”. Moreover, the Kd was 0.0122 ± 0.0015 µM in assay [1] (ITC, first line per metal: N 1, [PepA] 35.80 ± 1.5 (Mn) or 32.60 (Mg) µM, [Metal] 400.0 or 1000 µM); 0.0136 ± 0.0005 µM in assay [1] (ITC, one binding site per monomer, 25 °C, pH 7.4); 0.012 µM in assay [1] (ITC, one binding site per monomer, 25 °C, pH 7.4, listed as Mn2+); 0.0163 ± 1e-05 µM in assay [1] (ITC, second line per metal: N 1, [PepA] 47.00 or 48.00 µM, [Metal] 526.5 ± 22.5 (Mn) or 1470 (Mg) µM); 0.0122 ± 0.0001 µM in assay [1] (ITC, third line per metal: N fitted, [PepA] 47.00 or 48.00 µM, [Metal] 400.0 or 1000 µM). The same compound gave a N in assay [1] (ITC, third line per metal: N fitted) of 0.76 ± 0.03. The “k1, best-fitted value” in assay [2] (F + Mn = E1, global fit of MTO and STO data) was 1000 ± 53 μM^–1 s^–1. For the same compound, the “molar excess of metal over PaPepA at half maximal rate” value in assay [2] (setting [4]) was 24 fold. Moreover, the “molar excess of metal over PaPepA at plateau” value in assay [2] (setting [4]) is 300 fold. The compound further displayed a KACT in assay [3] (5 % PEG 8000, MnCl2 varied) of 0.19 ± 0.03. For the same compound, the kcat/KACT in assay [3] (5 % PEG 8000, MnCl2 varied) is on record as 2.2 ± 0.4. Further, in assay [3] (5 % PEG 8000, labelled component varied, other saturating, in 1/s), the kcat was determined as 0.43 ± 0.02.
